Values of other authors in patent US11364187B2, “Compositions and methods for preventing and reversing aspects of aging” (CENTERS FOR AGE CONTROL, INC., priority 2017, dated 2022).

Assays:
[1] = 60 year old human equivalent mice, one week of injections
[2] = topically applied
SIRT1 enzyme = molecular target: T1, SIRT1 enzyme (Homo sapiens, UniProt Q96EB6); conditions: in vitro
T1 sequence (Q96EB6 1-747): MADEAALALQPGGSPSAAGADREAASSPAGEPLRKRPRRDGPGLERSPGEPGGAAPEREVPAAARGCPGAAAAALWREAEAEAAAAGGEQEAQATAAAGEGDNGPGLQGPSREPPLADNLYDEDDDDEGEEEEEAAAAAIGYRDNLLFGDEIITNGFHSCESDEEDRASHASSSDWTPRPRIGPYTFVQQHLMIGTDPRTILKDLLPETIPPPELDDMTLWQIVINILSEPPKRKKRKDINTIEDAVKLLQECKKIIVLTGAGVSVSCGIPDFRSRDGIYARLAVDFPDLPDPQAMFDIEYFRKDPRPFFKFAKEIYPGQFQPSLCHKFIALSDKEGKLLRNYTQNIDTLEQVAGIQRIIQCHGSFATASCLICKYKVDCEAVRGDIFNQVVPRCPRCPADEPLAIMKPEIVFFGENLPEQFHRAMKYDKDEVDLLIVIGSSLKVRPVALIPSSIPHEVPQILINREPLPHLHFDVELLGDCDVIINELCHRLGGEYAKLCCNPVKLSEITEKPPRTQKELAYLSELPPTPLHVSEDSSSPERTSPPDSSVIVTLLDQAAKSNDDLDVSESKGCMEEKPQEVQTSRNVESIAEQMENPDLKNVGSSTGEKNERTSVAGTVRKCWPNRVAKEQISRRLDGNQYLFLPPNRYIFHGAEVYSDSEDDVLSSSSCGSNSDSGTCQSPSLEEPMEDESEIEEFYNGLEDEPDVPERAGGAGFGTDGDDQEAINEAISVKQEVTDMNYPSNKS

[3] = human body

## NC(=O)c1ccc[n+]([C@@H]2O[C@H](COP(=O)([O-])O)[C@@H](O)[C@H]2O)c1 [NMN, nicotinamide mono nucleotide]
[1]
  muscle tissue age appearance: muscle tissue resembling 20 years old

## NC(=O)c1cccnc1 [nicotinamide]
[2]
  wrinkles and dark spots on skin: reduces the wrinkles and dark spots on skin
SIRT1 enzyme
  effect on SIRT1 enzyme: direct inhibitor of SIRT1 enzyme in vitro

## COc1cc(/C=C/c2ccc(O)cc2)cc(OC)c1 [Pterostilbene]
[3]
  absorption: about 80%
  absorption relative to resveratrol: about four times more effectively
